Laboratory results reported in patent publication US20240254085A1, “CHELATORS FOR RADIOMETALS AND METHODS OF MAKING AND USING SAME” (The University of British Columbia, priority 2021, published 2024).

Key:
[1] = literature value (ref 11); cited from earlier work
[2] = Complex formation equilibria (stability constants) with Sm^3+; type: physicochemical
Protocol: (§1) To evaluate the affinity of H4noneunpaX towards metal ions of medicinal importance—e.g. Sc^3+, In^3+, Lu^3+, Dy^3+, Gd^3+, Sm^3+, La^3+— the complex formation equilibria were studied using both combined potentiometric-spectrophotometric titrations, and in all cases, acidic in-batch UV-vis spectrophotometric titrations below pH 2. […]
(§2) All potentiometric titrations were carried out with a Metrohm Titrando 809 and a Metrohm Dosino 800 with a Ross combined electrode. Direct titrations were recorded using a Varian Cary 60 UV-vis spectrophotometer (200-350 nm spectral range) equipped with an optic dip probe (0.2 cm path length), while acidic in-batch experiments were measured with a standardised glass cuvette (1 cm path length). A temperature-controlled (298 K) 20 mL glass cell with an inlet-outlet adapter for nitrogen gas purging (purified via a 10% NaOH solution to exclude CO2 prior to and during each titration) was used as a titration cell. The electrode was calibrated daily in hydrogen ion concentration by direct titration of HCl with freshly prepared NaOH solution, and the results were analysed with the Gran procedure^55 to determine the standard potential (E°) and the ionic product of water (pKw), at 298 K, with 0.16 M NaCl as a supporting electrolyte. […]
(§3) The complex formation equilibria of H4noneunpaX with Sc^3+, In^3+, Lu^3+, Dy^3+, Gd^3+, Sm^3+, and La^3+ were evaluated using both combined potentiometric-spectrophotometric titrations, and acidic in-batch UV-vis spectrophotometric titrations below pH 2. […] Measurements were recorded at T=298 K, I=1.0 cm, the Hammett acidity function (H0) was used determination of the pH in highly acidic solutions rather than electrode potentials. Metal solutions were prepared from atomic absorption spectroscopy (AAS) standards, which were previously evaluated using Gran's method of titrating equimolar solutions of a given metal ion and Na2H2EDTA against NaOH to determine the acid concentration. […]

[3] = Complex formation equilibria (stability constants) with Sc^3+; type: physicochemical
Protocol: as §1, §2, §3

[4] = Human serum stability challenge; type: in vitro ADME; details: complexes with [^111In]In^3+, [^155Tb]Tb^3+, [^177Lu]Lu^3+, [^225Ac]Ac^3+; 37° C., 5-7 days
Protocol: All experiments were performed at 37° C. and monitored via radio-iTLC (n=3).
Human serum stability studies were carried out by addition of each radiolabelled complex or bioconjugate (100 μL) to vials containing human serum albumin (100 μL) and incubating the resulting solutions at 37° C. over 5-7 days. The radiochemical purity (RCP) was determined by iTLC using SA-paper plates and EDTA (50 mM, pH 5.5 or 7.0) as eluent, whereby transchelated radioactivity migrates with the solvent front (Rf=1.0) while intact metal complexes remain at the baseline (Rf=0). All studies were performed in triplicate, and the average % RCP used for assessment of each compound.

[5] = Complex formation equilibria (stability constants) with La^3+; type: physicochemical
Protocol: as §1, §2, §3

[6] = Complex formation equilibria (stability constants) with Dy^3+; type: physicochemical
Protocol: as §1, §2, §3

[7] = Complex formation equilibria (stability constants) with Lu^3+; type: physicochemical
Protocol: as §1, §2, §3

[8] = Complex formation equilibria (stability constants) with Gd^3+; type: physicochemical
Protocol: as §1, §2, §3

[9] = Protonation constants by combined potentiometric-spectrophotometric and acidic in-batch UV-vis titrations; type: physicochemical; details: 25° C.
Description: Prior to investigation of the thermodynamic stability of different metal complexes, the protonation constants of the chelating ligand must be determined independently, due to the competition between a given metal ion with a proton for the same coordinating group in the metal complex reaction. Combined potentiometric and UV-vis spectrophotometric titrations were used to evaluate the protonation constants of H4noneunpaX between pH˜2-11.5, while acidic in-batch UV-vis spectrophotometric titrations were used to determine the protonation constants for the most acidic protons, which were below the threshold of the pH electrode (pH<2). All eight protonation constants for H4noneunpaX were determined through refinement of the experimental data using HyperSpec^24 and Hyperquad^25, Table 3.
(§4) All potentiometric titrations were carried out with a Metrohm Titrando 809 and a Metrohm Dosino 800 with a Ross combined electrode. Direct titrations were recorded using a Varian Cary 60 UV-vis spectrophotometer (200-350 nm spectral range) equipped with an optic dip probe (0.2 cm path length), while acidic in-batch experiments were measured with a standardised glass cuvette (1 cm path length). A temperature-controlled (298 K) 20 mL glass cell with an inlet-outlet adapter for nitrogen gas purging (purified via a 10% NaOH solution to exclude CO2 prior to and during each titration) was used as a titration cell. The electrode was calibrated daily in hydrogen ion concentration by direct titration of HCl with freshly prepared NaOH solution, and the results were analysed with the Gran procedure^55 to determine the standard potential (E°) and the ionic product of water (pKw), at 298 K, with 0.16 M NaCl as a supporting electrolyte. Solutions under study were titrated with carbonate-free NaOH solution (˜0.16 M) which was standardized against freshly recrystallized potassium hydrogen phthalate.
The protonation equilibria of H4noneunpaX were evaluated through combined potentiometric-spectrophotometric titrations of solutions containing the ligand ([L]=9.57×10^−4 M) in 0.16 M NaCl (T=298 K, I=0.2 cm). Electromotive force (EMF) values and UV-vis spectra were recorded after each addition of NaOH, and the apparatuses synchronized to have consistent time-intervals (30 s) between each addition/equilibration and data acquisition. Further acidic in-batch UV-vis spectrophotometry studies were performed to obtain the protonation constants for the most acidic ionisable protons of H4noneunpaX, which were below the threshold of the pH electrode (pH<2). Separate solutions of the ligand were prepared at constant molarity ([L]=1×10^−4 M) with differing amounts of HCl (0.1 M and 3.0 M), while maintaining a constant ionic strength (0.16 M NaCl) wherever possible. In each case, the solution stoichiometry was used to calculate the equilibrium concentration of H^+ ions, following the Hammett acidity function (H0) for determination of acidity in high concentration acid solutions. All eight protonation constants for H4noneunpaX were determined through refinement of the experimental data using HypSpec2014^24 and Hyperquad2013^25 software.
(§5) All the potentiometric measurements were processed using the Hyperquad2013^25 software, while spectroscopic measurements were analysed using HypSpec2014.^24 Proton dissociation constants corresponding to hydrolysis of the Sc^3+, In^3+, Lu^3+, Dy^3+ Gd^3+, Sm^3+, and La^3+ aqueous ions used in the calculations were taken from Baes and Mesmer. Speciation diagrams were generated with the calculated protonation constants and stability constants using Hyss software.^56
(§6) Each species generated in the investigated systems can be defined in accordance with the general equilibrium equation pM+qH+rL=MpHqLr (charges omitted). Wherein, a complex containing a metal ion, M, proton, H and ligand, L, has the general formula MpHqLr. […]

[10] = Complex formation equilibria (stability constants) with In^3+; type: physicochemical
Protocol: as §1, §4
The complex formation equilibria of H4noneunpaX with Sc^3+, In^3+, Lu^3+, Dy^3+, Gd^3+, Sm^3+, and La^3+ were evaluated using both combined potentiometric-spectrophotometric titrations, and acidic in-batch UV-vis spectrophotometric titrations below pH 2. For combined potentiometric-spectrophotometric titrations (spectral range: 200-350 nm), solutions containing a 1:1 molar ratio of metal-to-ligand ([M^3+]≈[H4noneunpaX]=8.40×10^−4 M) were titrated against NaOH solution at T=298 K, I=0.2 cm. Acidic in-batch UV-vis spectrophotometric measurements (spectral range: 200-350 nm) were carried out using sets of solutions containing a 1:1 molar ratio of metal-to-ligand ([M^3+]≈[H4noneunpaX]≈1×10^−4 M) with differing amounts of HCl (0.1 M and 3.0 M), to give samples ranging from pH 0-2. Measurements were recorded at T=298 K, I=1.0 cm, the Hammett acidity function (H0) was used determination of the pH in highly acidic solutions rather than electrode potentials. Metal solutions were prepared from atomic absorption spectroscopy (AAS) standards, which were previously evaluated using Gran's method of titrating equimolar solutions of a given metal ion and Na2H2EDTA against NaOH to determine the acid concentration.
as §5, §6

[11] = cited from earlier work
[12] = literature value (ref 40); cited from earlier work
[13] = −log[Mfree] when [L] = 10 μM, [M] = 1 μM at pH 7.4

O=C(O)CN1CCN(CC(=O)O)CCN(CC(=O)O)CCN(CC(=O)O)CC1 [DOTA]
pLu [1]: 17.1

O=C(O)CN(CCN(CC(=O)O)CC(=O)O)CCN(CC(=O)O)CC(=O)O [DTPA]
pLu [1]: 19.1

O=C(O)CN(CCOCCN(Cc1cccc(C(=O)O)n1)Cc1cccc(C(=O)O)n1)CC(=O)O [H4noneunpaX]
log KMHL ([2]; 25° C., I = […] NaCl): 2.77(1)
log KML ([2]; 25° C., I = […] NaCl): 21.04(2)
pM [2, 13]: 20.4
log KMHL ([3]; 25° C., I = […] NaCl): 3.07(1)
log KML ([3]; 25° C., I = […] NaCl): 23.57(2)
pM [3, 13]: 22.9
release of bound radiometal in human serum [4]: no release of bound radiometal
log KMHL ([5]; 25° C., I = […] NaCl): 3.22(2)
log KML ([5]; 25° C., I = […] NaCl): 18.45(4)
pM [5, 13]: 17.8
log KMHL ([6]; 25° C., I = […] NaCl): 2.29(2)
log KML ([6]; 25° C., I = […] NaCl): 21.99(5)
pM [6, 13]: 21.3
log KMHL ([7]; 25° C., I = […] NaCl): 2.28(3)
log KML ([7]; 25° C., I = […] NaCl): 21.93(3)
pM [7, 13]: 21.3
log KMHL ([8]; 25° C., I = […] NaCl): 2.80(1)
log KML ([8]; 25° C., I = […] NaCl): 20.87(4)
pM [8, 13]: 20.2
Σlog KHqL ([9]; I = […] NaCl): 27.35 (6)
log K (log K3) ([9]; H2L + H^+ ↔ H3L, I = […] NaCl): 3.79
log β ([9]; H2L + H^+ ↔ H3L, I = […] NaCl): 19.71 (1)
log K (log K4) ([9]; H3L + H^+ ↔ H4L, I = […] NaCl): 2.83
log β ([9]; H3L + H^+ ↔ H4L, I = […] NaCl): 22.54 (2)
log K (log K5) ([9]; H4L + H^+ ↔ H5L, I = […] NaCl): 2.38
log β ([9]; H4L + H^+ ↔ H5L, I = […] NaCl): 24.92 (3)
log K (log K6) ([9]; H5L + H^+ ↔ H6L, I = […] NaCl): 2.14
log β ([9]; H5L + H^+ ↔ H6L, I = […] NaCl): 27.06 (4)
log K ([9]; H6L + H^+ ↔ H7L, I = […] NaCl): 1.01
log β ([9]; H6L + H^+ ↔ H7L, I = […] NaCl): 28.07 (4)
log β ([9]; H7L + H^+ ↔ H8L): 27.35 (6)
log K (log K2) ([9]; HL + H^+ ↔ H2L, I = […] NaCl): 7.08
log β ([9]; HL + H^+ ↔ H2L, I = […] NaCl): 15.92 (1)
log K (log K1) ([9]; L + H^+ ↔ HL, I = […] NaCl): 8.84
log β ([9]; L + H^+ ↔ HL, I = […] NaCl): 8.84 (1)
log KM(OH)2L ([10]; 25° C., I = […] NaCl): 9.06(4)
log KM(OH)L ([10]; 25° C., I = […] NaCl): 8.58(4)
log KMHL ([10]; 25° C., I = […] NaCl): 6.17(3)
log KML ([10]; 25° C., I = […] NaCl): 27.64(2)
pM [10, 13]: 26.5

O=C(O)CN(CCOCCN(CC(=O)O)Cc1cccc(C(=O)O)n1)Cc1cccc(C(=O)O)n1 [H4noneunpa]
log K2 ([11]; literature value (ref 13), terminal amine): 7.63

O=C(O)CN(CCO)CC(=O)O [HEIDA, N-(2-hydroxyethyl)iminodiacetic acid]
log K1 ([11]; literature value (ref 26), iminodiacetate amine): 8.68

[^177Lu][Lu(DOTATATE)]
accumulation in the adrenal glands [12]: 8.95 % ID/g
accumulation in the lungs [12]: 17.4 % ID/g
accumulation in the pancreas [12]: 10.9 % ID/g
uptake in the kidneys [12]: 6.31 % ID/g
